Laboratory results from patent US7223759B2, “Antibacterial 3,5-diaminopiperidine-substituted aromatic and heteroaromatic compounds” (Anadys Pharmaceuticals, Inc., priority 2003, dated 2007).

These compounds were tested on Escherichia coli (ATCC25922) or Staphylococcus aureus (ATCC25923) (assay: Antibacterial MIC, microdilution method in Mueller-Hinton medium). Details: Escherichia coli, 18 h, MIC in E. coli or S. aureus; two-fold serial dilutions 64 to 0.5 μg/ml in duplicate; 18 hours of incubation at 35° C.; read-out: Potency (MIC).
Format: cell-based
Method in brief: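 Two-fold serial dilutions from 64 to 0.5 μg/ml, in duplicate, by broth microdilution in Mueller-Hinton medium (NCCLS M7-A5). MIC taken as the lowest concentration preventing visible growth after 18 h at 35° C.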

Compound	MIC [µg/mL]
CCN(C)CCNC(=O)c1ccc(NC(=O)CC(=O)c2ccc(Nc3nc(N4CCCCC4)nc(N4CCCCC4)n3)cc2)cc1.Cl [N-(4-{2-[4-(2-diethylamino-ethylcarbamoyl)-phhenylcxarbamoyl]-acetyl}-phenyl)-4,6-Bis-((3R,5S)-3,5-diamino-piperidin-1-yl)-[1,3,5]triazine-2-amine]	> 64
COc1ccc(Nc2ccc(NC(=O)CC(=O)c3ccc(Nc4nc(N5C[C@H](N)C[C@H](N)C5)nc(N5C[C@H](N)C[C@H](N)C5)n4)cc3)cc2)cc1 [N-(4-{2-[4-(4-methoxy-phenylamino)-phenylcarbamoyl]-acetyl}-phenyl)-4,6-Bis-((3R,5S)-3,5-diamino-piperidin-1-yl)-[1,3,5]triazine-2-amine]	< 16
Cl.O=C(CC(=O)N1CCC(n2c(=O)[nH]c3ccccc32)CC1)c1ccc(Nc2nc(N3CCCCC3)nc(N3CCCCC3)n2)cc1 [N-(4-{3-oxo-3-[4-(2-oxo-2,3-dihydro-benzoimidazol-1-yl)-piperidin-1-yl]-propionly}-phenyl)-4,6-Bis-((3R,5S)-3,5-diamino-piperidin-1-yl)-[1,3,5]triazine-2-amine]	> 64
COc1ccc(NC(C)=O)cc1Nc1nc(N2C[C@H](N)C[C@H](N)C2)nc(N2C[C@H](N)C[C@H](N)C2)n1 [N-(5-acetylamino-2-methoxy-phenyl)-4,6-Bis-((3R,5S)-3,5-diamino-piperidin-1-yl)-[1,3,5]triazine-2-amine]	> 64
Cl.NC(=O)c1[nH]cnc1Nc1nc(N2C[C@H](N)C[C@H](N)C2)nc(N2C[C@H](N)C[C@H](N)C2)n1 [N-(5-carbamoyl-1H-imidazol-4-yl)-4,6-Bis-((3R,5S)-3,5-diamino-piperidin-1-yl)-[1,3,5]triazine-2-amine]	> 64
Cl.NC(=O)c1ccc(Nc2nc(N3C[C@H](N)C[C@H](N)C3)nc(N3C[C@H](N)C[C@H](N)C3)n2)nc1 [N-(5-carbamoyl-pyridin-2-yl)-4,6-Bis-((3R,5S)-3,5-diamino-piperidin-1-yl)-[1,3,5]triazine-2-amine]	> 64
Cc1ccc(S(=O)(=O)N(C)C)cc1Nc1nc(N2C[C@H](N)C[C@H](N)C2)nc(N2C[C@H](N)C[C@H](N)C2)n1 [N-(5-dimethylsulfamoyl-2-methyl-phenyl)-4,6-Bis-((3R,5S)-3,5-diamino-piperidin-1-yl)-[1,3,5]triazine-2-amine]	> 64
Cc1cc(Nc2nc(N3C[C@H](N)C[C@H](N)C3)nc(N3C[C@H](N)C[C@H](N)C3)n2)no1.Cl [N-(5-methyl-isoxazol-3-yl)-4,6-Bis-((3R,5S)-3,5-diamino-piperidin-1-yl)-[1,3,5]triazine-2-amine]	> 64
CSc1nnc(Nc2nc(N3C[C@H](N)C[C@H](N)C3)nc(N3C[C@H](N)C[C@H](N)C3)n2)s1.Cl [N-(5-methylsulfanyl-[1,3,4]thiadiazol-2-yl)-4,6-Bis-((3R,5S)-3,5-diamino-piperidin-1-yl)-[1,3,5]triazine-2-amine]	> 64
Cl.Oc1cccc2ccc(Nc3nc(N4CCCCC4)nc(N4CCCCC4)n3)nc12 [N-(8-hydroxy-quinolin-2-yl)-4,6-Bis-((3R,5S)-3,5-diamino-piperidin-1-yl)-[1,3,5]triazine-2-ammine]	> 64
N[C@@H]1C[C@H](N)CN(c2nc(Nc3ccc(O)c4ncccc34)nc(N3C[C@H](N)C[C@H](N)C3)n2)C1 [N-(8-hydroxy-quinolin-5-yl)-4,6-Bis-((3R,5S)-3,5-diamino-piperidin-1-yl)-[1,3,5]triazine-2-amine]	< 64
Cc1ccc(S(=O)(=O)N(Cc2ccccc2)c2ccc(Nc3nc(NCCCn4ccnc4)nc(N4C[C@H](N)C[C@H](N)C4)n3)cc2O)cc1 [N-Benzyl-N-{4-[4-((3R,5S)-3,5-diamino-piperidin-1-yl)-6-(3-imidazol-1-yl-propylamino)-[1,3,5]triazin-2-ylamino]-2-hydroxy-phenyl}-4-methyl-benzenesulfonamide]	< 64
Cc1ccc(S(=O)(=O)N(Cc2ccccc2)c2ccc(Nc3nc(NC4CCNCC4)nc(N4C[C@H](N)C[C@H](N)C4)n3)cc2O)cc1 [N-Benzyl-N-{4-[4-((3R,5S)-3,5-diamino-piperidin-1-yl)-6-(piperidin-4-ylamino)-[1,3,5]triazin-2-ylamino]-2-hydroxy-phenyl}-4-methyl-benzenesulfonamide]	< 64
COc1nc(Nc2ccc(N(Cc3ccccc3)S(=O)(=O)c3ccc(C)cc3)c(O)c2)nc(N2CCCCC2)n1.Cl [N-Benzyl-N-{4-[4-((3R,5S)-3,5-diamino-piperidin-1-yl)-6-methoxy-[1,3,5]triazin-2-ylammino]-2-hydroxy-phenyl}-4-methyl-benzenesulfonamide]	< 16

Same assay, conditions: Escherichia coli, 18 h, read-out: Potency (MIC)

Compound	MIC [µg/mL]
N[C@@H]1C[C@H](N)CN(c2nc(Nc3ccc(C(=O)CC(=O)NCc4ccc5c(c4)OCO5)cc3)nc(N3C[C@H](N)C[C@H](N)C3)n2)C1 [N-(4-{2-[(benzo[1,3]dioxol-5-ylmethyl)-carbamoyl]-acetyl}-phenyl)-4,6-Bis-((3R,5S)-3,5-diamino-piperidin-1-yl)-[1,3,5]triazine-2-amine]	> 64
Cc1ccc(S(=O)(=O)N(Cc2ccccc2)c2ccc(NC(=O)c3ccc(Nc4nc(N5C[C@H](N)C[C@H](N)C5)nc(N5C[C@H](N)C[C@H](N)C5)n4)cc3O)cc2O)cc1 [N-(4-{4-[benzyl-(toluene-4-sulfonyl)-amino]-3-hydroxy-phenylcarbamoyl)-3-hydroxy-phenyl)-4,6-Bis-((3R,5S)-3,5-diamino-piperidin-1-yl)-[1,3,5]triazine-2-amine]	< 16
Nc1cncc(Nc2nc(N3C[C@H](N)C[C@H](N)C3)nc(N3C[C@H](N)C[C@H](N)C3)n2)c1 [N-(5-amino-pyridin-3-yl)-4,6-Bis-((3R,5S)-3,5-diamino-piperidin-1-yl)-[1,3,5]triazine-2-amine]	> 64
Cc1cccc(Nc2nc(N3C[C@H](N)C[C@H](N)C3)nc(N3C[C@H](N)C[C@H](N)C3)n2)n1 [N-(6-methyl-pyridin-2-yl)-4,6-Bis-((3R,5S)-3,5-diamino-piperidin-1-yl)-[1,3,5]triazine-2-amine]	> 64
N[C@@H]1C[C@H](N)CN(c2nc(Nc3nc4ccc([N+](=O)[O-])cc4s3)nc(N3C[C@H](N)C[C@H](N)C3)n2)C1 [N-(6-nitro-benzothiazol-2-yl)-4,6-Bis-((3R,5S)-3,5-diamino-piperidin-1-yl)-[1,3,5]triazine-2-amine]	< 16
N[C@@H]1C[C@H](N)CN(c2nc(Nc3ccc(O)c4ncccc34)nc(N3C[C@H](N)C[C@H](N)C3)n2)C1 [N-(8-hydroxy-quinolin-5-yl)-4,6-Bis-((3R,5S)-3,5-diamino-piperidin-1-yl)-[1,3,5]triazine-2-amine]	< 16
CCn1c2ccccc2c2cc(Nc3nc(N4C[C@H](N)C[C@H](N)C4)nc(N4C[C@H](N)C[C@H](N)C4)n3)ccc21 [N-(9-ethyl-9H-carbazol-3-yl)-4,6-Bis-((3R,5S)-3,5-diamino-piperidin-1-yl)-[1,3,5]triazine-2-amine]	< 64
N[C@@H]1C[C@H](N)CN(c2nc(Nc3ccc4c(c3)-c3ccccc3C4=O)nc(N3C[C@H](N)C[C@H](N)C3)n2)C1 [N-(9-oxo-9H-fluoren-3-yl)-4,6-Bis-((3R,5S)-3,5-diamino-piperidin-1-yl)-[1,3,5]triazine-2-amine]	< 16
N[C@@H]1C[C@H](N)CN(c2nc(Nc3ccc4c(c3)Cc3ccccc3-4)nc(N3C[C@H](N)C[C@H](N)C3)n2)C1 [N-(9H-fluoren-2-yl)-4,6-Bis-((3R,5S)-3,5-diamino-piperidin-1-yl)-[1,3,5]triazine-2-amine]	< 16
C[C@H](Nc1nc(N2C[C@H](N)C[C@H](N)C2)nc(N2C[C@H](N)C[C@H](N)C2)n1)c1cccc2ccccc12 [N-((S)-1-naphthalen-1-yl-ethyl)-4,6-Bis-((3R,5S)-3,5-diamino-piperidin-1-yl)-[1,3,5]triazine-2-amine]	> 64
Cc1ccc(S(=O)(=O)N(Cc2ccccc2)c2ccc(Nc3nc(N4C[C@H](N)C[C@H](N)C4)nc(N4C[C@@H](N)[C@@H](N)C4)n3)cc2O)cc1 [N-Benzyl-N-{4-[4-((3R,5S)-3,5-diamino-piperidin-1-yl)-6-((3R,4S)-3,4-diamino-pyrrolidin-1-yl)-[1,3,5]triazin-2-ylamino]-2-hydroxy-phenyl}-4-methyl-benzenesulfonamide]	< 16
Cc1ccc(S(=O)(=O)N(Cc2ccccc2)c2ccc(Nc3nc(N4C[C@H](N)C[C@H](N)C4)nc(N4C[C@@H](O)[C@@H](O)C4)n3)cc2O)cc1 [N-Benzyl-N-{4-[4-((3R,5S)-3,5-diamino-piperidin-1-yl)-6-((3R,4S)-3,4-dihydroxy-pyrrolidin-1-yl)-[1,3,5]triazin-2-ylamino]-2-hydroxy-phenyl}-4-methyl-benzenesulfonamide]	< 64
Cc1ccc(S(=O)(=O)N(Cc2ccccc2)c2ccc(Nc3nc(N4C[C@H](N)C[C@H](N)C4)nc(N4C[C@H](O)C[C@@H](O)C4)n3)cc2O)cc1 [N-Benzyl-N-{4-[4-((3R,5S)-3,5-diamino-piperidin-1-yl)-6-((3R,5R)-3,5-dihydroxy-piperidin-1-yl)-[1,3,5]triazin-2-ylamino]-2-hydroxy-phenyl}-4-methyl-benzenesulfonamide]	< 64
Cc1ccc(S(=O)(=O)N(Cc2ccccc2)c2ccc(Nc3nc(N4C[C@H](N)C[C@H](N)C4)nc(N4CCC[C@@H](O)C4)n3)c(O)c2)cc1 [N-Benzyl-N-{4-[4-((3R,5S)-3,5-diamino-piperidin-1-yl)-6-((R)-3-hydroxy-piperidin-1-yl)-[1,3,5]triazin-2-ylamino]-3-hydroxy-phenyl}-4-methyl-benzenesulfonamide]	< 64
Cc1ccc(S(=O)(=O)N(Cc2ccccc2)c2ccc(Nc3nc(NC4CCCNC4)nc(N4C[C@H](N)C[C@H](N)C4)n3)cc2O)cc1 (stereo partly drawn) [N-Benzyl-N-{4-[4-((3R,5S)-3,5-diamino-piperidin-1-yl)-6-(piperidin-3-ylamino)-[1,3,5]triazin-2-ylamino]-2-hydroxy-phenyl}-4-methyl-benzenesulfonamide]	< 64
